In data set [1] the test system is C2C12 cells. Nature of the data set: Flow cytometry (FACS) cell cycle analysis during myogenic differentiation. In kind it is cell-based, murine. The settings on record: percentage of cells; differentiation media, 0.5 mM oligonucleotide, 24 hours; DNA content by FACS. (In flow cytometry, cells or beads pass a laser one at a time.)
A further data set concerns p21. Nature of the data set: Western immunoblot of C2C12 lysates, anti-p21. The settings on record: differentiation media with Lipofectin, 24 hours. In kind it is cell-based, murine. (In western blotting, separated proteins are transferred to a membrane and probed.)
The test system of data set [2] is Akt. In kind it is cell-based, murine.
The test system of a further data set is Cdk4. Nature of the data set: Western immunoblot of C2C12 lysates, anti-Cdk4. The settings on record: differentiation media with Lipofectin, 24 hours. The format is cell-based, murine.
For data set [3], the system named is C2C12 cells. The format is cell-based, murine.
The next data set has as its system cardiomyocytes. Nature of the data set: TUNEL analysis of cultured cardiomyocytes. In kind it is cell-based, rat. The settings on record: increasing concentrations of IGF-1, mock- and Adeno-β-gal-transfected cells, 48 hours.
Data set [4] has as its system neonatal rat cardiac myocytes. Nature of the data set: Neonatal cardiac myocyte viability, trypan-blue exclusion assay. In kind it is cell-based.
A further data set concerns cardiac myocytes. Nature of the data set: Hoechst 33342 staining for pyknotic nuclei in cardiac myocytes. The format is cell-based, rat. The settings on record: serum-free media with IGF-1.
Data set [5] has as its system Akt. The experiment in a line: Akt kinase assay (histone H2B) in cardiac myocyte lysates. In kind it is cell-based, rat. The settings on record: serum-deprived, 50 ng/ml IGF-1, 15 min.
Data set [6] relates to HUVECs. The experiment in a line: HUVEC cell viability, Trypan-blue exclusion assay. The settings on record: 100 ng/ml VEGF, serum-free DMEM, 21 hours. The format is cell-based, human.
For a further data set, the system named is Akt2. The experiment in a line: Akt2 kinase assay (histone H2B) in HUVEC lysates. The format is cell-based, human. The settings on record: serum-deprived HUVEC, VEGF 100 ng/ml, 15 min.
In data set [7] the test system is HUVECs. The experiment in a line: HUVEC plasmid co-transfection cell-death assay (surviving β-galactosidase-positive cells). The format is cell-based, human. The settings on record: 25 ng/ml VEGF, serum-free 21 hrs, control plasmid.

Entries after “also recorded” stand apart in the source; their conditions may differ.

Consider four substances from patent US7368420B1, “Akt compositions for enhancing survival of cells” (Caritas St. Elizabeth's Medical Center of Boston, Inc., priority 1998, dated 2008).

Chain of Akt (P31750 whole entry): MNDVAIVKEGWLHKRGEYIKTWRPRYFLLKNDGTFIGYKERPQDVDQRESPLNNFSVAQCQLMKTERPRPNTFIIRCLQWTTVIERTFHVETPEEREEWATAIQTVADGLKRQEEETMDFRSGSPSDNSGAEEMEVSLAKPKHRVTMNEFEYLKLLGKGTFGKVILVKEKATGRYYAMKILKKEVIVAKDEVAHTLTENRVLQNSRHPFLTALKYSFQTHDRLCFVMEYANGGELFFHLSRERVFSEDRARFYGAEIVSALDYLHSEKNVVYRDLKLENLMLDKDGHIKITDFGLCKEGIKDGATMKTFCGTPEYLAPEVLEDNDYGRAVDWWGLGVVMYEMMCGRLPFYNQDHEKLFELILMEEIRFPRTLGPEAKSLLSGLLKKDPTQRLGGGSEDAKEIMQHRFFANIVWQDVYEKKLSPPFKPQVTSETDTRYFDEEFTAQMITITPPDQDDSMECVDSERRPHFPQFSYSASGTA

Consider “5′-TGG ATC CGA CAT GTC AGA-3′ (TGGATCCGACATGTCAGA; all phosphorothioate, sugars by position and methylation of C not given here) [Control]”, for which, in the data set on C2C12 cells [1], the “Cell cycle phase G0/G1” value stood at 67, the “Cell cycle phase G2/M” value stood at 8 and the “Cell cycle phase S” value worked out at 25.
With “5′-TGTCAGGCTGGTCTGCCTCC-3′ (antisense TGTCAGGCTGGTCTGCCTCC; chemistry not given here) [p21-AS]”, in the data set on p21, the “induction of p21” value is reported as “markedly inhibited the induction of p21”. The Akt expression entry in the data set with Akt [2] was “statistically significant reduction in Akt expression”. The cdk4 expression result in the data set on Cdk4 is on record as “no significant effect on cdk4”. For the same substance, in the data set on C2C12 cells [1], the “Cell cycle phase G0/G1” value came to 38, the “Cell cycle phase G2/M” value came to 17 and the “Cell cycle phase S” value is recorded as 45. In the data set with C2C12 cells [3], the “cell-death versus control cultures” value was “Markedly enhanced cell-death”.
Regarding “IGF-1: Insulin-like growth factor-1, purchased from Gibco BRL”, the “frequency of myocyte apoptosis (TUNEL)” value in the data set on cardiomyocytes is “reduced the frequency of myocyte apoptosis”. Besides, the “time cardiac myocyte viability was sustained” value in [4] (50 ng/ml IGF-1, serum-depleted) is listed as “more than 48 hours”. In data set [4] (serum-free media, up to 72 hours), the “cardiac myocyte viability / cytoprotection by IGF-1” value was “dependent on the dose of IGF-1; also recorded: maintained”. Besides, the “incidence of pyknotic nuclei” value in the data set on cardiac myocytes is recorded as “suppressed the incidence of pyknotic nuclei”. For the same substance, the “Akt activity (phosphorylation of histone H2B)” value in the data set with Akt [5] is “induced the phosphorylation of histone H2B”.
For VEGF, the “cell loss induced by serum-deprivation” value with HUVECs [6] is listed as “completely reversed cell loss induced by serum-deprivation”. The Akt2 kinase activity result in the data set on Akt2 is reported as “little or no activation of Akt2”. Moreover, the “increase in number of surviving β-galactosidase positive cells (factor)” value in the data set with HUVECs [7] worked out at 3.
